Counter-ions that a name gives are not always drawn. Like-named read-outs stand apart in the source and are kept apart here. Marks after values point to notes of the source that are not given here.
How the values were obtained:
[1] = rat, in vivo, 350 mg/kg
[2] = for Qualitative Tmax (blood collection with greatest plasma level): blood every 6h, np = no peak; for Plasma AUC: plasma 0–48h, trapezoidal; for Plasma AUC / Cmax: mean ± SD; for Cmax: plasma
[3] = for Qualitative Tmax (urine collection with greatest excretion): 12h urine collections, np = no peak; for Cmax (nmol excreted): urine, mean ± SD

SMILES	Qualitative Tmax (urine collection with greatest excretion) [1] [h]	Qualitative Tmax (blood collection with greatest plasma level) ([2]; High dose (1000 mg/kg bw)) [h]	Plasma AUC ([2]; High dose (1000 mg/kg bw))	Cmax ([2]; High dose (1000 mg/kg bw)) [nM]	Qualitative Tmax (blood collection with greatest plasma level) ([2]; Low dose (75 mg/kg bw))	Plasma AUC ([2]; Low dose (75 mg/kg bw))	Cmax ([2]; Low dose (75 mg/kg bw))	Qualitative Tmax (blood collection with greatest plasma level) ([2]; Medium dose (350 mg/kg bw)) [h]	Plasma AUC ([2]; Medium dose (350 mg/kg bw))	Cmax ([2]; Medium dose (350 mg/kg bw)) [nM]	Qualitative Tmax (urine collection with greatest excretion) ([3]; High dose (1000 mg/kg bw)) [h]	Cmax (nmol excreted) ([3]; High dose (1000 mg/kg bw))	Qualitative Tmax (urine collection with greatest excretion) ([3]; Low dose (75 mg/kg bw))	Cmax (nmol excreted) ([3]; Low dose (75 mg/kg bw))	Qualitative Tmax (urine collection with greatest excretion) ([3]; Medium dose (350 mg/kg bw)) [h]	Cmax (nmol excreted) ([3]; Medium dose (350 mg/kg bw))
COc1ccc(-c2oc3cc(O)cc(O)c3c(=O)c2O)cc1O [4-OMe-quercetin, 4-methoxyquercetin]	0 to 12															
COc1cc(/C=C/C(=O)O)ccc1OS(=O)(=O)O [Ferulic acid sulfate]		6	9.12 ± 2.89 ^x uM*h	825 ± 317	np	6.16 ± 1.50 ^x uM*h	np	6	6.33 ± 3.04 ^x uM*h	262 ± 169	0 to 12	18.7 ± 14.9	np	np	0 to 12	7.41 ± 3.52
